From PMC11173647, “Anti-Inflammatory Activity of Pyrazolo[1,5-a]quinazolines” (Molecules, 2024)
Where two headings read alike, the source gives them in different places.

How the values were obtained:
[1] = tested on: LPS-induced NF-κB/AP-1 transcriptional activity in THP-1Blue cells; assay: LPS-induced NF-κB/AP-1 reporter (secreted alkaline phosphatase) activity in THP-1Blue cells; assay type: cell-based, human; settings: for inhibitory activity in THP-1Blue cells (in words): LPS-induced NF-κB/AP-1 reporter activity; for IC50: THP-1Blue cells, 30 min pretreatment, 250 ng/mL LPS for 24 h, alkaline phosphatase in supernatant, read-out: AP Production IC50
Procedure: THP-1 cells are a human monocyte cell line that was developed from a monocyte isolated from the peripheral blood of an acute monocytic leukemia patient. This cell line is used as a monocyte/macrophage model in immunology research. The THP-1Blue cells obtained from InvivoGen (San Diego, CA, USA) are THP-1 cells that were stably transfected with a secreted embryonic alkaline phosphatase gene that is under control of a NF-κB/AP-1-inducible promoter. For this study, THP-1Blue cells were cultured at 37 °C in a humidified atmosphere containing 5% CO2 in RPMI 1640 medium (Mediatech Inc., Herndon, VA, USA) supplemented with 10% (v/v) fetal bovine serum (FBS), 100 μg/mL streptomycin, 100 U/mL penicillin, 100 μg/mL phleomycin (Zeocin), and 10 μg/mL blasticidin S (all from Sigma-Aldrich, St. Louis, MO, USA).
To measure the activation of AP-1/NF-κB, the THP-1Blue cells (2 × 10^5 cells/well) were pretreated with the test compounds or dimethyl sulfoxide (DMSO; 1% final concentration) for 30 min, followed by the addition of 250 ng/mL of lipopolysaccharide (LPS; from Escherichia coli strain 0111:B4) for 24 h, and alkaline phosphatase activity was measured in the cell supernatants using the QUANTI-Blue mix (InvivoGen) as the absorbance at 655 nm and compared with positive control samples (LPS). The concentration of the compound that caused 50% inhibition of the NF-κB reporter activity (IC50) was calculated.

[2] = tested on: THP-1Blue cells; assay: Cytotoxicity, CellTiter-Glo Luminescent Cell Viability Assay; assay type: cell-based, human; settings: 24 h, concentrations up to 50 µM
Procedure: Cytotoxicity was analyzed with a CellTiter-Glo Luminescent Cell Viability Assay Kit from Promega (Madison, WI, USA) according to the manufacturer’s protocol. THP-1Blue cells were treated with varying concentrations of the test compounds (up to 50 µM) and cultivated for 24 h. After treatment, the cells were allowed to equilibrate to room temperature for 30 min, the substrate was added, and the samples were analyzed with a Fluoroscan Ascent FL (Thermo Fisher Scientific, Waltham, MA, USA).

[3] = Solubility in DMSO; assay type: physicochemical
[4] = molecular target: T1, JNK2 (Homo sapiens, UniProt P45984); assay: KINOMEscan ATP site-dependent binding assay; settings: duplicate
T1 construct: purchased Eurofins Pharma Discovery (KINOMEscan)
Procedure: (§1) Binding reactions were performed at room temperature for 1 h, and the fraction of kinase not bound to the test compound was determined by capture with an immobilized affinity ligand and quantified by quantitative polymerase chain reaction. The primary screening at fixed concentrations of the compound was performed in duplicate.

[5] = molecular target: T2, JNK1 (Homo sapiens, UniProt P45983); assay: KINOMEscan ATP site-dependent binding assay; settings: duplicate
T2 construct: purchased Eurofins Pharma Discovery (KINOMEscan)
Procedure: as §1

[6] = molecular target: T3, JNK3 (Homo sapiens, UniProt P53779); assay: KINOMEscan ATP site-dependent binding assay; settings: duplicate
T3 construct: purchased Eurofins Pharma Discovery (KINOMEscan)
Procedure: as §1

T1 sequence (P45984 whole entry): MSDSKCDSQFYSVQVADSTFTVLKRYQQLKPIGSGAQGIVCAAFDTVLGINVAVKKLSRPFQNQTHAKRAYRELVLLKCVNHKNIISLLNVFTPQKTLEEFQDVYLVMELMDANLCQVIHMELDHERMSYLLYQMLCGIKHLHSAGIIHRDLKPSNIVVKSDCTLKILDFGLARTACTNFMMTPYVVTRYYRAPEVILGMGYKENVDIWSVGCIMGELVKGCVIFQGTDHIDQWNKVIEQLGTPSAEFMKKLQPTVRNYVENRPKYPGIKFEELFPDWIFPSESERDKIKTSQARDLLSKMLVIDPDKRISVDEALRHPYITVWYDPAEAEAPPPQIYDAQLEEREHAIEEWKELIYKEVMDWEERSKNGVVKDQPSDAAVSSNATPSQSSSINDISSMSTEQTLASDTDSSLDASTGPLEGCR
T3 sequence (P53779 whole entry): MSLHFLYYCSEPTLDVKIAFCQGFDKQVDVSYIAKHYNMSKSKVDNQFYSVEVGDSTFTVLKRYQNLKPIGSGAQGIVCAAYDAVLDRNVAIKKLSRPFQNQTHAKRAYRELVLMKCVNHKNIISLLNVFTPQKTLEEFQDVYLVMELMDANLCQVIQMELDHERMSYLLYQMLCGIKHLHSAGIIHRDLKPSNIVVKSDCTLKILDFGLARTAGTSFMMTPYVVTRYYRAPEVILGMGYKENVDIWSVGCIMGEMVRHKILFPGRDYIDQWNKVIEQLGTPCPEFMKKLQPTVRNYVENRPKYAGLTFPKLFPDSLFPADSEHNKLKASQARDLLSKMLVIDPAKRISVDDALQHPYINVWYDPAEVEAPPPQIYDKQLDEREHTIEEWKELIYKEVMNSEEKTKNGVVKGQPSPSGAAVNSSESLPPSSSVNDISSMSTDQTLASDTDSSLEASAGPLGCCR
T2 sequence (P45983 whole entry): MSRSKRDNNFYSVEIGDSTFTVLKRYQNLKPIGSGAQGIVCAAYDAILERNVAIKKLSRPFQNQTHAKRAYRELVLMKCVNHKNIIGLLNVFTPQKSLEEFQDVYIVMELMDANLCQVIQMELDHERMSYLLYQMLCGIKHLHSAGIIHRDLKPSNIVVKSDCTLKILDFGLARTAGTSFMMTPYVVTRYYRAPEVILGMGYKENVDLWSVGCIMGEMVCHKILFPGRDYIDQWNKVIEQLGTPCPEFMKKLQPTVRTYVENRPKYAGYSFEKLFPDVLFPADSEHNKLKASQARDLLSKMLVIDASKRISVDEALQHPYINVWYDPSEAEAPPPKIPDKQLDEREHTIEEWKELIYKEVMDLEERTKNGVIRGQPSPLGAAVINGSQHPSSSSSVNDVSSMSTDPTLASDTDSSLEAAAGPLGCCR

| Compound | melting point | Cytotoxicity [2] | also measured |
| --- | --- | --- | --- |
| 5-{[4-(Methanesulfonyl)phenyl]methoxy}-3-(thiophen-3-yl)pyrazolo[1,5-a]quinazoline [compound 20] |  | N.T. (no cytotoxicity was found in THP-1Blue cells at concentrations up to 50 µM) | inhibitory activity in THP-1Blue cells (in words) [1]: moderate activity; IC50 [1]: 13.3 ± 2.6 µM |
| CSc1ccc(Cn2c(=O)c3ccccc3n3ncc(C#N)c23)cc1 (hydrate or solvate) [7e] | 189 to 192 °C |  |  |
| CSc1ccc(Cn2c(=O)c3ccccc3n3nccc23)cc1 (hydrate or solvate) [7f] | 137 to 139 °C |  |  |
| N#Cc1cnn2c1[nH]c(=O)c1ccc([N+](=O)[O-])cc12 [2c] | 280 to 283 °C |  |  |
| N#Cc1cnn2c1[nH]c(=O)c1cc([N+](=O)[O-])ccc12 [2d] | > 295 °C |  |  |
| CCOC(=O)c1cnn2c1[nH]c(=O)c1ccc([N+](=O)[O-])cc12 [4c] | 195 to 197 °C |  |  |
| CCOC(=O)c1cnn2c1[nH]c(=O)c1cc([N+](=O)[O-])ccc12 [4d] | 217 to 220 °C |  |  |
| CCOC(=O)c1cnn2c3ccccc3c(=O)n(Cc3ccc(S(N)(=O)=O)cc3)c12 [7c] | 224 to 226 °C |  |  |
| COc1nc2c(C(N)=O)cnn2c2ccccc12 [13a, 5-Methoxypyrazolo[1,5-a]quinazoline-3-carboxamide] | 246 to 247 °C | N.T. (no cytotoxicity was found in THP-1Blue cells at concentrations up to 50 µM) | IC50 ([1]; Homo sapiens): 24.4 ± 3.1 µM |
| NC(=O)c1cnn2c1nc(OCc1ccccc1)c1ccccc12 [13b, 5-(Benzyloxy)pyrazolo[1,5-a]quinazoline-3-carboxamide] | 208 to 209 °C | N.T. (no cytotoxicity was found in THP-1Blue cells at concentrations up to 50 µM) | IC50 ([1]; Homo sapiens): 4.81 µM; IC50 [1]: 4.8 ± 1.2 µM; solubility in DMSO [3]: low solubility in DMSO |
| NC(=O)c1cnn2c1nc(OCc1ccccc1Cl)c1ccccc12 [13d] | 227 to 229 °C |  |  |
| NC(=O)c1cnn2c1nc(OCc1cccc(Cl)c1)c1ccccc12 [13e] | 242 to 245 °C |  |  |
| NC(=O)c1cnn2c1nc(OCc1ccc(Br)cc1)c1ccccc12 [13f] | 243 to 244 °C |  |  |
| Cc1ccccc1COc1nc2c(C(N)=O)cnn2c2ccccc12 [13g] | 226 to 227 °C |  |  |
| COc1cccc(COc2nc3c(C(N)=O)cnn3c3ccccc23)c1 [13h] | 210 to 212 °C |  |  |
| NC(=O)c1cnn2c1nc(OCc1ccc(S(N)(=O)=O)cc1)c1ccccc12 [13i, 5-[(4-Sulfamoylbenzyl)oxy]pyrazolo[1,5-a]quinazoline-3-carboxamide] | 167 to 168 °C | N.T. (no cytotoxicity was found in THP-1Blue cells at concentrations up to 50 µM) | IC50 ([1]; Homo sapiens): 9.7 ± 2.4 µM; Kd [4]: 18.5 ± 2.3 µM; Kd [5]: 10.9 ± 1.4 µM; Kd [6]: 9 ± 1.2 µM |
| CSc1ccc(Cn2c(=O)c3ccccc3n3ncc(C(N)=O)c23)cc1 [14c] | 276 to 279 °C |  |  |
| NC(=O)c1cnn2c1nc(OCc1ccc(S(N)(=O)=O)cc1)c1ccc(Cl)cc12 [23c, 8-Chloro-5-(4-sulfamoylbenzyloxy)pyrazolo[1,5-a]quinazoline-3-carboxamide] |  | N.T. (no cytotoxicity was found in THP-1Blue cells at concentrations up to 50 µM) | IC50 ([1]; Homo sapiens): 12.2 ± 2.1 µM |
| COc1nc2c(C(N)=O)cnn2c2cc([N+](=O)[O-])ccc12 [33a, 5-Methoxy-8-nitropyrazolo[1,5-a]quinazoline-3-carboxamide] |  | N.T. (no cytotoxicity was found in THP-1Blue cells at concentrations up to 50 µM) | IC50 ([1]; Homo sapiens): 14.1 ± 2.9 µM |
| COc1ccc2c(c1)-n1ncc(C(=O)NCc3ccccc3)c1NC2 [58c] |  | N.T. (no cytotoxicity was found in THP-1Blue cells at concentrations up to 50 µM) | IC50 ([1]; Homo sapiens): 39.1 µM; IC50 [1]: 34.1 ± 4.1 µM |
| C[S+]([O-])c1ccc(Cn2c(=O)c3ccccc3n3ncc(I)c23)cc1 (stereo not drawn) [compound 9] | 198 to 201 °C |  |  |
| C[S+]([O-])c1ccc(COc2nc3c(C(N)=O)cnn3c3ccccc23)cc1 (stereo not drawn) [compound 16] | 225 to 226 °C | N.T. (no cytotoxicity was found in THP-1Blue cells at concentrations up to 50 µM) | IC50 ([1]; Homo sapiens): 7.9 ± 1.7 µM; Kd [4]: 21 ± 2.4 µM; Kd [5]: 17 ± 2.1 µM; Kd [6]: 10.4 ± 1.5 µM |
| c1ccc(CNc2nc3c(-c4ccsc4)cnn3c3ccccc23)cc1 [compound 22] | 176 to 177 °C |  |  |
| CN(C)/C=N/C(=O)c1cnn2c1[nH]c(=O)c1ccc(Cl)cc12 [compound 26, (E)-8-Chloro-N-[(dimethylamino)methylene]-5-oxo-4,5-dihydropyrazolo[1,5-a]quinazoline-3-carboxamide] | 288 to 290 °C | N.T. (no cytotoxicity was found in THP-1Blue cells at concentrations up to 50 µM) | IC50 ([1]; Homo sapiens): 49.3 ± 4.6 µM |
| CCOC(=O)c1cnn2c1nc(Nc1ccc(N)cc1)c1cc([N+](=O)[O-])ccc12 [compound 40] | 269 to 271 °C |  |  |
| CNc1nc2c(C(N)=O)cnn2c2cc([N+](=O)[O-])ccc12 [compound 43, 5-(Methylamino)-8-nitropyrazolo[1,5-a]quinazoline-3-carboxamide] | > 300 °C | N.T. (no cytotoxicity was found in THP-1Blue cells at concentrations up to 50 µM) | IC50 ([1]; Homo sapiens): 11.8 ± 2.2 µM |
| COc1nc2c(C#N)cnn2c2cc(N)ccc12 [compound 47, 8-amino-5-methoxy-PQ-3-carbonitrile] | > 300 °C |  |  |
| Cn1c(=O)c2ccc(N)cc2n2ncc(C#N)c12 [compound 48] | 286 to 288 °C |  |  |
| Cn1c(=O)c2ccc(N)cc2n2ncc(C(N)=O)c12 [compound 49] | > 300 °C |  |  |

Now from value to compound, other results behind:

| melting point | Compound | Cytotoxicity [2] | also measured |
| --- | --- | --- | --- |
| 177 to 180 °C | NC(=O)c1cnn2c1nc(OCc1ccc(S(N)(=O)=O)cc1)c1ccc(Cl)cc12 (hydrate or solvate) [23c, 8-Chloro-5-(4-sulfamoylbenzyloxy)pyrazolo[1,5-a]quinazoline-3-carboxamide] |  |  |
| 179 to 181 °C | c1ccc(COc2nc3c(-c4ccsc4)cnn3c3ccccc23)cc1 [21a] |  |  |
| 125 to 126 °C | Nc1ccccc1COc1nc2c(-c3ccsc3)cnn2c2ccccc12 [21b] |  |  |
| 288 to 290 °C | COc1nc2c(C(N)=O)cnn2c2cc(Cl)ccc12 [23a, 8-Chloro-5-methoxypyrazolo[1,5-a]quinazoline-3-carboxamide] | N.T. (no cytotoxicity was found in THP-1Blue cells at concentrations up to 50 µM) | IC50 ([1]; Homo sapiens): 7.9 ± 1.6 µM |
| 269 to 271 °C | COc1nc2c(C(N)=O)cnn2c2ccc([N+](=O)[O-])cc12 [33b, 5-Methoxy-7-nitropyrazolo[1,5-a]quinazoline-3-carboxamide] | N.T. (no cytotoxicity was found in THP-1Blue cells at concentrations up to 50 µM) | IC50 ([1]; Homo sapiens): 18.2 ± 2.5 µM |
| > 300 °C | CNc1nc2c(C#N)cnn2c2cc([N+](=O)[O-])ccc12 [42a, 5-(Methylamino)-8-nitropyrazolo[1,5-a]quinazoline-3-carbonitrile] | N.T. (no cytotoxicity was found in THP-1Blue cells at concentrations up to 50 µM) | IC50 ([1]; Homo sapiens): 30.1 ± 3.3 µM; inhibitory activity in THP-1Blue cells (in words) [1]: moderate activity |
| > 295 °C | N#Cc1cnn2c1nc(Nc1ccc(N)cc1)c1ccc([N+](=O)[O-])cc12 [42c] |  |  |
| > 295 °C | N#Cc1cnn2c1nc(Nc1ccc(N)cc1)c1cc([N+](=O)[O-])ccc12 [42d] |  |  |
| > 300 °C | COc1nc2c(C(N)=O)cnn2c2cc(N)ccc12 [46a] |  |  |
| > 300 °C | CNc1nc2c(C#N)cnn2c2cc(N)ccc12 [46b] |  |  |
| > 300 °C | CNc1nc2c(C(N)=O)cnn2c2cc(N)ccc12 [46c] |  |  |
| > 300 °C | CCOC(=O)c1cnn2c1ncc1c(=O)nc[nH]c12 [53a] |  |  |
| > 300 °C | O=c1nc[nH]c2c1cnc1ccnn12 [53b] |  |  |
